Measurements: ChEMBL document CHEMBL1129013, “Benzopyran selective estrogen receptor modulators (SERMs): Pharmacological effects and structural correlation with raloxifene” (1996)

Legend:
Rattus norvegicus [1] = assay: Reduction in uterine weight in rat model at dose 10.0 mg/kg (p.o.); assay type: functional; conditions: route oral
Rattus norvegicus [2] = assay: Reduction in serum cholesterol in rat model at dose 10.0 mg/kg (p.o.); assay type: functional, organism-based; set-up: dose 10 mg/kg
Rattus norvegicus [3] = assay: Reduction in body weight in rat model at dose 0.01 mg/kg (p.o.); assay type: functional; conditions: route oral
Rattus norvegicus [4] = assay: Reduction in uterine weight in rat model at dose 0.1 mg/kg (p.o.); assay type: functional; conditions: route oral
Rattus norvegicus [5] = assay: Reduction in serum cholesterol in rat model at dose 0.1 mg/kg (p.o.); assay type: functional, organism-based; set-up: dose 0.1 mg/kg
Rattus norvegicus [6] = assay: Reduction in uterine weight in rat model at dose 1.0 mg/kg (p.o.); assay type: functional; conditions: route oral
Rattus norvegicus [7] = assay: Reduction in serum cholesterol in rat model at dose 1.0 mg/kg (p.o.); assay type: functional, organism-based; set-up: dose 1 mg/kg
Rattus norvegicus [8] = assay: Reduction in uterine weight in rat model at dose 0.01 mg/kg (p.o.); assay type: functional; conditions: route oral
Rattus norvegicus [9] = assay: Reduction in body weight in rat model at dose 10.0 mg/kg (p.o.); assay type: functional; conditions: route oral
Rattus norvegicus [10] = assay: Reduction in serum cholesterol in rat model at dose 0.01 mg/kg (p.o.); assay type: functional, organism-based; set-up: dose 0.01 mg/kg
Rattus norvegicus [11] = assay: Reduction in body weight in rat model at dose 1.0 mg/kg (p.o.); assay type: functional; conditions: route oral
Rattus norvegicus [12] = assay: Reduction in body weight in rat model at dose 0.1 mg/kg (p.o.); assay type: functional; conditions: route oral

SMILES | Uterine weight (Rattus norvegicus [1]) [mg] | Serum cholesterol (Rattus norvegicus [2]) [mg/dL] | Body weight (Rattus norvegicus [3]) [g] | Uterine weight (Rattus norvegicus [4]) [mg] | Serum cholesterol (Rattus norvegicus [5]) [mg/dL] | Uterine weight (Rattus norvegicus [6]) [mg] | Serum cholesterol (Rattus norvegicus [7]) [mg/dL] | Uterine weight (Rattus norvegicus [8]) [mg] | Body weight (Rattus norvegicus [9]) [g] | Serum cholesterol (Rattus norvegicus [10]) [mg/dL] | Body weight (Rattus norvegicus [11]) [g] | Body weight (Rattus norvegicus [12]) [g]
Oc1ccc(C2=Cc3ccc(O)cc3OC2c2ccc(OCCN3CCCCC3)cc2)cc1 (configuration not stated) | 124.2 | 53 | 334 | 132.2 | 69.3 | 151 | 52.6 | 105.7 | 284 | 92.1 | 287 | 314
C#C[C@]1(O)CC[C@H]2[C@@H]3CCc4cc(O)ccc4[C@H]3CC[C@@]21C [ETHINYL ESTRADIOL] | – | – | – | 319 | 37.1 | – | – | – | – | – | – | 274
CC1=C(c2ccc(O)cc2)C(c2ccc(OCCN3CCCCC3)cc2)Oc2cc(O)ccc21 (configuration not stated) | 135.2 | 57.4 | 306 | 160.2 | 69.8 | 134.2 | 42.3 | 128.2 | 302 | 79 | 295 | 281
